Test results published in patent US9120756B2, “Substituted phenylureas and phenylamides as vanilloid receptor ligands” (Gruenenthal GmbH, priority 2009, dated 2015).

Target: hVR1 (Homo sapiens (Human), UniProt Q8NER1)
Assay: FLIPR Ca2+ influx assay on CHO K1 cells transfected with the VR1 gene, capsaicin stimulus (method II)
Assay type: cell-based
Parameters: key to Ki (human being) Cap: result in words (NE / AG): AG=agonist; pAG=partial agonist; NE=no effect
Details: for Ki: capsaicin (Cap), read-out: Ki (human being) [nM] Cap; for Ki (human being) Cap: result in words (NE / AG): capsaicin; for inhibition at 5 µM: CHO-K1, read-out: Ki (human being) Cap column: inhibition (as a percentage) @ 5 μM, capsaicin, inhibition determined at 5 μM; for inhibition at 1 µM: CHO-K1, read-out: Ki (human being) inhibition (as a percentage) @ 1 μM, capsaicin, inhibition determined at 1 μM
Source text: In the process, the Ca^2+ influx is quantified in the FLIPR assay with the aid of a Ca^2+-sensitive dye (type Fluo-4, Molecular Probes Europe BV, Leiden, the Netherlands) in a fluorescent imaging plate reader (FLIPR, Molecular Devices, Sunnyvale, USA), as described hereinafter.
The agonistic or antagonistic effect of the substances to be tested on the vanilloid receptor 1 (VR1) can also be determined using the following assay. In this assay, the influx of Ca^2+ through the channel is quantified with the aid of a Ca^2+-sensitive dye (type Fluo-4, Molecular Probes Europe BV, Leiden, the Netherlands) in a fluorescent imaging plate reader (FLIPR, Molecular Devices, Sunnyvale, USA).
Chinese hamster ovary cells (CHO K1 cells, European Collection of Cell Cultures (ECACC) United Kingdom) are stably transfected with the VR1 gene. For functional testing, these cells are plated out on poly-D-lysine-coated black 96-well plates having a clear base (BD Biosciences, Heidelberg, Germany) at a density of 25,000 cells/well. The cells are incubated overnight at 37° C. and 5% CO2 in a culture medium (Ham's F12 nutrient mixture, 10% by volume of FCS (foetal calf serum), 18 μg/ml of L-proline). The next day the cells are incubated with Fluo-4 (Fluo-4 2 μM, 0.01% by volume of Pluronic F127, Molecular Probes in HBSS (Hank's buffered saline solution), Gibco Invitrogen GmbH, Karlsruhe, Germany) for 30 minutes at 37° C. Subsequently, the plates are washed three times with HBSS buffer and after further incubation for 15 minutes at RT used for Ca^2+ measurement in a FLIPR assay. The Ca^2+-dependent fluorescence is measured before and after the addition of the substances to be tested (λex wavelength=488 nm, λem=540 nm). Quantification is carried out by measuring the highest fluorescence intensity (FC, fluorescence counts) over time.
The FLIPR protocol consists of 2 substance additions. First the compounds to be tested (10 μM) are pipetted onto the cells and the Ca^2+ influx is compared with the control (capsaicin 10 μM) (% activation based on the Ca^2+ signal after the addition of 10 μM of capsaicin). After 5 minutes' incubation, 100 nM of capsaicin are applied and the Ca^2+ influx is also determined.
Desensitising agonists and antagonists led to suppression of the Ca^2+ influx.
Starting from the percentage displacement caused by different concentrations of the compounds to be tested of general formula I, IC50 inhibitory concentrations which cause a 50-percent displacement of capsaicin were calculated. Ki values for the test substances were obtained by conversion by means of the Cheng-Prusoff equation (Cheng, Prusoff; Biochem. Pharmacol. 22, 3099-3108, 1973).

Chain of hVR1 (Q8NER1 whole entry): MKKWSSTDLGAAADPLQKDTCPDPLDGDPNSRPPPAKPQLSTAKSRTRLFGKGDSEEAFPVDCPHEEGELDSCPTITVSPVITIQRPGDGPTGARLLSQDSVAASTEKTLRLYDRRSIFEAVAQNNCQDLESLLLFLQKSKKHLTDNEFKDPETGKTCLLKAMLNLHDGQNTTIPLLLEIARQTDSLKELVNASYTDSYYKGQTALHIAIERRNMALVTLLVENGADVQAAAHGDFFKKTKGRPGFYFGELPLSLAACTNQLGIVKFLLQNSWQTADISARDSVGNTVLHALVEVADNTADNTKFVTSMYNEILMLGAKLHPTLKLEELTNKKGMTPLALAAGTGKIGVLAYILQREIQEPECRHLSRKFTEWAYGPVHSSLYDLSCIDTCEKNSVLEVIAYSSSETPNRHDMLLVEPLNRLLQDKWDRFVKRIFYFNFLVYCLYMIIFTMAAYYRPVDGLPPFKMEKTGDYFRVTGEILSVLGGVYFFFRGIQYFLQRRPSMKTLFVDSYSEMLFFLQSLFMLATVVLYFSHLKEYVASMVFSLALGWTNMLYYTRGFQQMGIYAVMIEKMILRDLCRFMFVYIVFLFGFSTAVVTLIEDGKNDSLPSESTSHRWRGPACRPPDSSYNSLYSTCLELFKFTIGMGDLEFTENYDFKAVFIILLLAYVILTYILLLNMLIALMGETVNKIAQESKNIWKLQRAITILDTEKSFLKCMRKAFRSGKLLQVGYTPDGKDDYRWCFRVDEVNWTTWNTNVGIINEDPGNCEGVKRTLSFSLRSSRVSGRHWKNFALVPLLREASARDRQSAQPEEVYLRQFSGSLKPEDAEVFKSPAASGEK

## CC(C(=O)NCc1cc(C(F)(F)F)nn1-c1cccc(Cl)c1)c1cc(F)cc(F)c1 (stereo not drawn) [Example 30, N-((1-(3-chlorophenyl)-3-(trifluoromethyl)-1H-pyrazol-5-yl)methyl)-2-(3,5-difluorophenyl)propanamide]
  Ki: 6.3 nM

## CC(C(=O)NCc1cc(C(C)(C)C)nn1-c1cccc(Cl)c1)c1ccc(C2CC2)c(F)c1 (stereo not drawn) [Example 125, N-((3-tert-butyl-1-(3-chlorophenyl)-1H-pyrazol-5-yl)methyl)-2-(4-cyclopropyl-3-fluorophenyl)propanamide]
  Ki (human being) Cap: result in words (NE / AG): AG

## COCCOCc1ccc(C(C)C(=O)NCc2cc(C(C)(C)C)nn2-c2cccc(Cl)c2)cc1F (stereo not drawn) [Example 142, N-((3-tert-butyl-1-(3-chlorophenyl)-1H-pyrazol-5-yl)methyl)-2-(3-fluoro-4-((2-methoxyethoxy)methyl)phenyl)propanamide]
  Ki (human being) Cap: result in words (NE / AG): AG

## CC(C)(C)c1cc(CNC(=O)Cc2cccc(F)c2)n(NCC(F)(F)F)n1 [Example 133, N-((3-tert-butyl-1-(2,2,2-trifluoroethylamino)-1H-pyrazol-5-yl)methyl)-2-(3-fluorophenyl)acetamide]
  inhibition at 5 µM: 12%

## CC(C)(C)c1cc(CNC(=O)Cc2cccc(F)c2)n(-c2cccc(Cl)c2)n1 [Example 73, N-((3-tert-butyl-1-(3-chlorophenyl)-1H-pyrazol-5-yl)methyl)-2-(3-fluorophenyl)acetamide]
  Ki (human being) Cap: result in words (NE / AG): AG

## CC(C(=O)NCc1cc(C(F)(F)F)nn1-c1cccc(Cl)c1)c1ccc(C(=O)Nc2ccc(F)cc2)cc1 (stereo not drawn) [Example 40, 4-(1-((1-(3-chlorophenyl)-3-(trifluoromethyl)-1H-pyrazol-5-yl)methylamino)-1-oxopropan-2-yl)-N-(4-fluorophenyl)benzamide]
  Ki: 0.8 nM

## Cc1c(C(F)(F)F)nn(-c2cccc(Cl)c2)c1CNC(=O)C(C)c1ccc(CNS(C)(=O)=O)c(F)c1 (stereo not drawn) [Example 134, N-((1-(3-chlorophenyl)-4-methyl-3-(trifluoromethyl)-1H-pyrazol-5-yl)methyl)-2-(3-fluoro-4-(methylsulfonamidmethyl)phenyl)propanamide]
  Ki: 2.5 nM

## O=C(NCc1cc(C(F)(F)F)nn1-c1cccc(Cl)c1)C1(c2cccc(F)c2)CCCC1 [Example 120, N-((1-(3-chlorophenyl)-3-(trifluoromethyl)-1H-pyrazol-5-yl)methyl)-1-(3-fluorophenyl)cyclopentancarboxamide]
  inhibition at 1 µM: 6%

## O=C(NCc1cc(C(F)(F)F)nn1-c1cccc(Cl)c1)Nc1ccc(C2CC2)c(F)c1 [Example 126, 1-((1-(3-chlorophenyl)-3-(trifluoromethyl)-1H-pyrazol-5-yl)methyl)-3-(4-cyclopropyl-3-fluorophenyl)urea]
  Ki: 31.4 nM

## CC(C(=O)NCc1cc(C(F)(F)F)nn1-c1cccc(Cl)c1)c1ccc(C(=O)Nc2ccccc2)c(F)c1 (stereo not drawn) [Example 39, 4-(1-((1-(3-chlorophenyl)-3-(trifluoromethyl)-1H-pyrazol-5-yl)methylamino)-1-oxopropan-2-yl)-2-fluoro-N-phenylbenzamide]
  Ki: 7.2 nM

## N-((1-(3-chlorophenyl)-3-cyclopropyl-1H-pyrazol-5-yl)methyl)-2-(3-fluoro-4-(methylsulfonylmethyl)phenyl)propanamide [Example 128]
  Ki: 16.3 nM

## CC(C(=O)NCc1cc(C(C)(C)C)nn1-c1ccccn1)c1ccc(CNS(C)(=O)=O)c(F)c1 (stereo not drawn) [Example 127, N-((3-tert-butyl-1-(pyridin-2-yl)-1H-pyrazol-5-yl)methyl)-2-(3-fluoro-4-(methylsulfonamidmethyl)phenyl)propanamide]
  Ki: 58.1 nM

## COc1c(F)cc(NC(=O)NCc2cc(C(C)(C)C)nn2-c2cccc(Cl)c2)cc1F [Example 61, 1-((3-tert-butyl-1-(3-chlorophenyl)-1H-pyrazol-5-yl)methyl)-3-(3,5-difluoro-4-methoxyphenyl)urea]
  Ki (human being) Cap: result in words (NE / AG): AG

## CN(C(=O)NCc1cc(C(F)(F)F)nn1-c1cccc(Cl)c1)c1cccc(F)c1 [Example 123, 3-((1-(3-chlorophenyl)-3-(trifluoromethyl)-1H-pyrazol-5-yl)methyl)-1-(3-fluorophenyl)-1-methylurea]
  inhibition at 5 µM: 44%

## CC(C)(C)c1cc(CNC(=O)Nc2ccc(N3CCOCC3)c(F)c2)n(-c2cccc(Cl)c2)n1 [Example 144, 1-((3-tert-butyl-1-(3-chlorophenyl)-1H-pyrazol-5-yl)methyl)-3-(3-fluoro-4-morpholinphenyl)urea]
  Ki (human being) Cap: result in words (NE / AG): AG

## O=C(NCc1cc(C(F)(F)F)nn1-c1cccc(Cl)c1)Nc1ccc(C#CC2CC2)c(F)c1 [Example 139, 1-((1-(3-chlorophenyl)-3-(trifluoromethyl)-1H-pyrazol-5-yl)methyl)-3-(4-(cyclopropylethynyl)-3-fluorophenyl)urea]
  Ki (human being) Cap: result in words (NE / AG): AG

## CC(C)(C)c1cc(CNC(=O)C2(c3cccc(F)c3)CC2)n(-c2cccc(Cl)c2)n1 [Example 118, N-((3-tert-butyl-1-(3-chlorophenyl)-1H-pyrazol-5-yl)methyl)-1-(3-fluorophenyl)cyclopropancarboxamide]
  Ki (human being) Cap: result in words (NE / AG): AG

## Cc1c(C(F)(F)F)nn(-c2cccc(Cl)c2)c1CNC(=O)Cc1cccc(F)c1 [Example 130, N-((1-(3-chlorophenyl)-4-methyl-3-(trifluoromethyl)-1H-pyrazol-5-yl)methyl)-2-(3-fluorophenyl)acetamide]
  Ki: 112 nM

## CC(C)(C)c1cc(CNC(=O)Nc2cccc(F)c2)n(-c2ccc(F)cc2)n1 [Example 122, 1-((3-tert-butyl-1-(4-fluorophenyl)-1H-pyrazol-5-yl)methyl)-3-(3-fluorophenyl)urea]
  Ki (human being) Cap: result in words (NE / AG): AG

## COc1ccc(Cn2nc(C(F)(F)F)cc2CNC(=O)Cc2cccc(F)c2)cc1 [Example 132, 2-(3-fluorophenyl)-N-((1-(4-methoxybenzyl)-3-(trifluoromethyl)-1H-pyrazol-5-yl)methyl)acetamide]
  inhibition at 5 µM: 34%

## CC(C(=O)NCc1cc(C(F)(F)F)nn1-c1cccc(Cl)c1)c1ccc(C(=O)Nc2ccccc2)cc1 (stereo not drawn) [Example 143, 4-(1-((1-(3-chlorophenyl)-3-(trifluoromethyl)-1H-pyrazol-5-yl)methylamino)-1-oxopropan-2-yl)-N-phenylbenzamide]
  inhibition at 1 µM: 56%

## CC(C)(C)c1nc(CNC(=O)Cc2cccc(F)c2)n(-c2cccc(Cl)c2)n1 [Example 135, N-((3-tert-butyl-1-(3-chlorophenyl)-1H-1,2,4-triazol-5-yl)methyl)-2-(3-fluorophenyl)acetamide]
  inhibition at 5 µM: 24%

## CC(C(=O)NCc1cc(C(F)(F)F)nn1NCc1ccccn1)c1ccc(CNS(C)(=O)=O)c(F)c1 (stereo not drawn) [Example 129, 2-(3-fluoro-4-(methylsulfonamidmethyl)phenyl)-N-((1-(pyridin-2-ylmethylamino)-3-(trifluoromethyl)-1H-pyrazol-5-yl)methyl)propanamide]
  Ki: 63.6 nM

## CC(C(=O)NCc1cc(C(F)(F)F)nn1C1CCCCC1)c1ccc(CNS(C)(=O)=O)c(F)c1 (stereo not drawn) [Example 137, N-((1-cyclohexyl-3-(trifluoromethyl)-1H-pyrazol-5-yl)methyl)-2-(3-fluoro-4-(methylsulfonamidmethyl)phenyl)propanamide]
  Ki: 65.1 nM

## O=C(NCc1cc(C(F)(F)F)nn1-c1cccc(Cl)c1)C1(c2cccc(F)c2)CCC1 [Example 119, N-((1-(3-chlorophenyl)-3-(trifluoromethyl)-1H-pyrazol-5-yl)methyl)-1-(3-fluorophenyl)cyclobutancarboxamide]
  Ki: 107 nM

## CC(C(=O)NCc1cc(C(C)(C)C)nn1-c1cccc(Cl)c1)c1ccc(CNS(C)(=O)=O)c(F)c1 (stereo not drawn) [Example 33, N-((3-tert-butyl-1-(3-chlorophenyl)-1H-pyrazol-5-yl)methyl)-2-(3-fluoro-4-(methylsulphonamidomethyl)phenyl)propanamide]
  Ki: 4 nM

## CC(C)(C(=O)NCc1cc(C(F)(F)F)nn1-c1cccc(Cl)c1)c1cccc(F)c1 [Example 117, N-((1-(3-chlorophenyl)-3-(trifluoromethyl)-1H-pyrazol-5-yl)methyl)-2-(3-fluorophenyl)-2-methylpropanamide]
  Ki: 56 nM
